# Results from patent EP4624457A1, “I[…] DERIVATIVES, I[…] NEURODEGENERATIVE DISEASES” (Centre National de la Recherche Scientifique, priority 2024, dated 2025).
# Several values for one entry are separate records, joined by “and”; a condition that tells them apart may be missing. Equal entries are not always repeated.
# Tested on: A2780 ovarian carcinoma cells
# Assay: Phosphatidylserine exposure assay (FITC-Annexin V / propidium iodide, flow cytometry)
# Type: cell-based
# Method: • Figure 1 represents the chemical structure of ingrilimine according to compound (Illa) formula. • Figure 2 represents the cytotoxic activity of ingrilimine. A2780 ovarian and HT29 colorectal carcinoma cells were grown in RPMI 1640 supplemented with 10% fetal calf serum (FCS) and 1% glutamine. U87-MG glioblastoma cells were grown in Dulbecco minimal essential medium containing 4.5 g/L glucose, 10% FCS and 1% glutamine at 37 °C in a humidified atmosphere containing 5% CO2. For IC50 determination, the cells were seeded in 96-well plates (3 × 10^3 cells/well) containing 90 µL of growth medium. After 24 h of culture, the cells were treated with ingrilimine at 10 different final concentrations. Cell viability was determined by luminescence after 72 h incubation. (a) Effect of ingrilimine on A2780 ovarian carcinoma cells. (b) Effect of ingrilimine on U87-MG glioblastoma cells. (c) Effect of ingrilimine on U87-MG glioblastoma cells • Figure 3a-3f represent the mitochondrial dysfunction provoked by ingrilimine. […] Sector Q normal cells that accumulated the JC-1 dye (fluorescence emission 590 nm). […] (a) Non-treated cells incubated with the carrier (DMSO) for 24 h. (b) HCT116 cells incubated with 10 nN ingrilimine for 24 h. (c) HCT116 cells incubated with 250 nM ingrilimine for 24 h. (d) Non-treated cells incubated with the carrier (DMSO) for 48 h. (e) HCT116 cells incubated with 10 nN ingrilimine for 48 h. (f) HCT116 cells incubated with 250 nM ingrilimine for 48. Changes in fluorescence emission were recorded by flow cytometry using the JC-1 mithocondrial membrane potential-dependent fluorescent dye. NT = non-treated cells; IngX = ingrilimine. • Figure 4a-4f represents phosphatidylserine exposure provoked by ingrilimine. […] Quadrants D1 and D2 with dead or necrotic cells, quadrant D3 with normal cells and quadrant D4 with apoptotic cells following phosphatidylserine exposure. (a) Non-treated A2780 cells incubated with the carrier (DMSO) for 24h. (b) A2780 cells incubated with 10 nM ingrilimine for 24 h. (c) A2780 cells incubated with 250 nM ingrilimine for 24 h. (d) Non-treated A2780 cells incubated with the carrier (DMSO) for 48 h. (e) A2780 cells incubated with 10 nM ingrilimine for 48 h. (f) A2780 cells incubated with 250 nM ingrilimine for 48. […] exposure in A2780 cell was quantified by flow cytometry using FITC-Annexin V. Dead or necrotic cells were detected using the vital dye propridium iodide. NT = non-treated cells; IngX = ingrilimine. • Figure 5 represents the antagonistic activity of ingrilimine (named "IngX" in the figure) and portimine (named "Port A" in the figure) against nicotinic acetylcholine receptors recorded by two-electrodes voltage clamp electrophysiology on Xenopus laevis oocytes. Clamped Xenopus laevis oocytes having incorporated the muscle (α1)2βγδ nAChR subtype from Torpedo marmorata (filled squares), or expressing the neuronal α3β2 nAChR subtype from rat (filled triangles), or expressing the human neuronal α7 nAChR subtype (filled circles) were exposed to portimine (100 nM - 1 mM) for 45 seconds. […] A Xenopus laevis oocyte expressing the human α7 nAChR subtype was exposed to 100 µM acetylcholine triggering the immediate opening of the receptor's channel (black bold line) followed by the very-fast closure of the channel ([…]) that became insensitive to acetylcholine during the rest of the 5 seconds exposure (desensitization). When a Xenopus laevis oocyte expressing the human α7 nAChR subtype was exposed first to 10 nM ingrilimine for 45 seconds and then to a mixture (Mix) containing 10 nM ingrilimine and 100 µM acetylcholine, the receptor's channel was closed denoting a strong antagonistic activity of the tested toxin against the α7 nAChR subtype (dotted line). […]
structure (smiles),measurement,setting,value
C=CC1=C[C@@H]2[C@@H]3O[C@]4(CC[C@H](O4)[C@@H](C)C[C@@H](O)C3=O)C[C@H](O)C3=NCC[C@@]32CC1 [Portimine-A],Annexin V+/IP,"1 nM, 24 h, early apoptotic cells (annexin V positive, propidium iodide negative)",3.4%
same,Annexin V+/IP,"1 nM, 48 h",1.7%
same,Annexin V+/IP,"5 nM, 24 h",6.4%
same,Annexin V+/IP,"5 nM, 48 h",18.4%
same,Annexin V+/IP,"10 nM, 24 h",13.1%
same,Annexin V+/IP,"10 nM, 48 h",24.1%
same,Annexin V+/IP,"20 nM, 24 h",13%
same,percentage of late-stage apoptotic cells and or necrotic cells,"20 nM, 24 h",4.3%
same,percentage of late-stage apoptotic cells and or necrotic cells,"20 nM, 48 h",15%
same,Annexin V+/IP,"20 nM, 48 h, listed as Portimine",39% and 39.3%
same,Annexin V+/IP,"50 nM, 24 h",22.8%
same,viable cells,"50 nM, 48 h treatment, quadrant D3",40%
"C=CC1=C[C@@H]2C[C@@H](O)[C@@H](O)/C(C)=C/C/C(C)=C/CCC3=NCCC[C@]32CC1 [Ingrilimine, ingrilimine]",Annexin V+/IP,"10 nM, 24 h",1.1%
same,Annexin V+/IP,"10 nM, 48 h",0.8%
same,Annexin V+/IP,"50 nM, 24 h",3.4%
same,Annexin V+/IP,"50 nM, 48 h",10%
same,Annexin V+/IP,"100 nM, 24 h",9.8%
same,Annexin V+/IP,"100 nM, 48 h",20.4%
same,Annexin V+/IP,"250 nM, 24 h",13.1%
same,Annexin V+/IP,"250 nM, 24 h, listed as ingrilimine",-13%
same,percentage of propidium iodide positive and annexin V positive,"250 nM, 24 h, quadrant D2, late stage apoptotic, dead or necrotic cells",3.8%
same,Annexin V+/IP,"250 nM, 48 h",31.3%
same,percentage of propidium iodide positive and annexin V positive,"250 nM, 48 h, quadrant D2",17%
same,Annexin V+/IP,"500 nM, 24 h",27.1%
same,viability at 0.25 µM,"Homo sapiens, A2780, 48 h, read-out: viable cells",45%
